US20220227729A1, “IDENTIFICATION AND USE OF KRAS INHIBITORS” (Bayer Aktiengesellschaft, priority 2019, published 2022)

Experiments:
KRAS^G12C = KRAS^G12C (Homo sapiens, UniProt P01116, G12C); assay: KRAS G12C activation by SOS1cat assay (On-assay), HTRF; conditions: SOS1cat mediated loading of GST-KRAS G12C-GDP with fluorescent GTP analogue; 180 min preincubation; 20° C.; read-out: IC50 value biochemical KRAS^G12C activation assay
Experimental: (§1) Preparation of test compound dilutions. A 100-fold concentrated solution of the test compound (50 nL) in DMSO was transferred to microtiter test plates (384 or 1,536 wells, Greiner Bio-One, Germany) using either a Hummingbird liquid handler (Digilab, MA, USA) or an Echo acoustic system (Labcyte, CA, USA). Plates were sealed with adhesive foil or heat-sealed and stored at −20° C. until use. Serial dilutions of test compounds were prepared in 100% DMSO using a Precision Pipetting System (BioTek, USA).
(§2) Measurement and evaluation of inhibition data, calculation of IC50 values. Homogeneous time-resolved fluorescence (HTRF) was measured with a PHERAstar reader (BMG, Germany) using the HTRF module (excitation: 337 nm; emission 1: 620 nm, emission 2: 665 nm). The ratio of the emissions at 665 and 620 nm was used as the specific signal for further evaluation. The data were normalized using the controls: DMSO=0% inhibition, inhibition control wells with inhibitor control solution=100% inhibition. Compounds were tested in duplicates at up to 11 concentrations (e.g. 20 μM, 5.7 μM, 1.6 μM, 0.47 μM, 0.13 μM, 38 nM, 11 nM, 3.1 nM, 0.89 nM, 0.25 nM and 0.073 nM). IC50 values were calculated using a four-parameter fit, with a commercial software package (Genedata Screener, Switzerland).
(§3) KRAS^G12C activation by SOS1^cat assay (“On-assay”). This assay quantifies SOS1^cat mediated loading of KRAS^G12C-GDP with a fluorescent GTP analogue. Detection of successful loading was achieved by measuring resonance energy transfer from anti-GST-terbium (FRET donor) bound to GST-KRAS^G12c to the loaded fluorescent GTP analogue (FRET acceptor). The fluorescent GTP analogue EDA-GTP-DY-647P1 [2′/3′-O-(2-aminoethyl-carbamoyl)guanosine-5′-triphosphate labelled with DY-647P1 (Dyomics GmbH, Germany)] was synthesized by Jena Bioscience (Germany) and supplied as a 1 mM aqueous solution. A KRAS^G12C working solution was prepared in assay buffer [10 mM HEPES pH 7.4 (AppliChem), 150 mM NaCl (Sigma), 5 mM MgCl2 (Sigma), 1 mM DTT (Thermo Fisher), 0.05% BSA Fraction V pH 7.0 (ICN Biomedicals), 0.0025% (v/v) Igepal (Sigma)] containing 100 nM GST-KRAS^G12C and 2 nM anti-GST-terbium (Cisbio, France). A SOS1^cat working solution was prepared in assay buffer containing 20 nM SOS1^cat and 200 nM EDA-GTP-DY-647P1. An inhibitor control solution was prepared in assay buffer containing 200 nM EDA-GTP-DY-647P1 without SOS1^cat. All steps of the assay were performed at 20° C. A volume of 2.5 μL of the KRAS^G12C working solution was added to all wells of the test plate using a Multidrop dispenser (Thermo LabSystems). After 180 min, 2.5 μL of the SOS1^cat working solution was added to all wells, except for the inhibitor control solution wells. After 30 min incubation, HTRF was measured.

KRAS^WT = KRAS^WT (Homo sapiens, UniProt P01116); assay: Wild-type KRAS activation by SOS1cat assay, HTRF; conditions: SOS1cat mediated loading of GST-KRAS WT-GDP with fluorescent GTP analogue; 50 nM GST-KRAS WT; read-out: IC50 value biochemical KRAS^wt activation assay
Experimental: as §1, §2, §3
Wild-type KRAS activation by SOS1^cat assay. This assay quantifies human SOS1^cat mediated loading of wild-type GST-KRAS^WT-GDP with a fluorescent GTP analogue. The assay was performed similar to the KRAS^G12C activation by SOS1^cat assay. GST-KRAS^G12C was replaced by GST-KRAS^WT, which was used at 50 nM final concentration.

[1] = target: recombinant kRas mutant (G12C; C51S; C80L; C118S) (Homo sapiens, UniProt P01116, C118S/C51S/C80L/G12C); assay: Covalent binding assay, intact mass LC-MS; conditions: 25 μM protein, 25 μM compound, room temperature, 2 h
Experimental: The percentage of covalent adduct formation at KRas G12C was determined by intact mass determination. To this end 25 μM recombinant kRas mutant (G12C; C51S; C80L; C118S) (storage buffer: 50 mM Tris, pH=8; 50 mM NaCl) were incubated with 25 μM of compound (1% v/v final DMSO concentration) at room temperature for 2 h. For LC-MS analysis the reaction was acidified by adding 4 μL of 4% v/v TFA to 20 μL reaction volume.
Liquid chromatography-mass spectrometry (LC-MS) analysis was performed using a Waters SYNAPT G2-S quadrupole time-of-flight mass spectrometer connected to a Waters nanoAcquity UPLC system. Samples were loaded on a 2.1×5 mm mass prep C4 guard column (Waters) and desalted with a short gradient (3 min.) of increasing concentrations of acetonitrile at a flow rate of 100 μL/min. Spectra were analyzed by using MassLynx v4.1 software and deconvoluted with the MaxEnt1 algorithm.
Percent conversion was determined by the ratio of signal intensities of apo-kRas and kRas+inhibitor.

SMILES: C=CC(=O)N1CCC(c2nc3ccc(-c4cccnc4N4CCOCC4)cc3c(=O)[nH]2)C1 (stereo not drawn) [Example 20, 6-[2-(Morpholin-4-yl)pyridin-3-yl]-2-[1-(prop-2-enoyl)pyrrolidin-3-yl]quinazolin-4(3H)-one]
- IC50 (KRAS^G12C): > 20 µM
- IC50 (KRAS^WT): > 20 µM
- Covalent Binding Assay (% binding) [1]: 3%

SMILES: C=CC(=O)N1CCC(c2nc3cc(Cl)c(-c4c(F)cccc4OC)cc3c(=O)[nH]2)C1 (stereo not drawn) [Example 21, 7-Chloro-6-(2-fluoro-6-methoxyphenyl)-2-[1-(prop-2-enoyl)pyrrolidin-3-yl]quinazolin-4(3H)-one]
- IC50 (KRAS^G12C): > 20 µM
- IC50 (KRAS^WT): > 20 µM
- Covalent Binding Assay (% binding) [1]: 26%

SMILES: C=CC(=O)N1CCC(c2nc3cc(Cl)c(-c4ccccc4F)cc3c(=O)[nH]2)C1 (stereo not drawn) [Example 22, 7-Chloro-6-(2-fluorophenyl)-2-[1-(prop-2-enoyl)pyrrolidin-3-yl]quinazolin-4(3H)-one]
- IC50 (KRAS^G12C): 18 µM
- IC50 (KRAS^WT): > 20 µM
- Covalent Binding Assay (% binding) [1]: 31%

SMILES: C=CC(=O)N1CCC(c2nc3cc(Cl)c(-c4ccc(F)cc4F)cc3c(=O)[nH]2)C1 (stereo not drawn) [Example 23, 7-Chloro-6-(2,4-difluorophenyl)-2-[1-(prop-2-enoyl)pyrrolidin-3-yl]quinazolin-4(3H)-one]
- IC50 (KRAS^G12C): > 20 µM
- IC50 (KRAS^WT): > 20 µM
- Covalent Binding Assay (% binding) [1]: 34%

SMILES: C=CC(=O)N1CCC(c2nc3cc(Cl)c(-c4c(O)cccc4F)cc3c(=O)[nH]2)C1 (stereo not drawn) [Example 24, 7-Chloro-6-(2-fluoro-6-hydroxyphenyl)-2-[1-(prop-2-enoyl)pyrrolidin-3-yl]quinazolin-4(3H)-one]
- IC50 (KRAS^G12C): 9.1 µM
- IC50 (KRAS^WT): > 20 µM
- Covalent Binding Assay (% binding) [1]: 53%

SMILES: C=CC(=O)N1CCC(c2nc3cc(Cl)c(-c4c(C)ccc5[nH]ncc45)cc3c(=O)[nH]2)C1 (stereo not drawn) [Example 25, 7-Chloro-6-(5-methyl-1H-indazol-4-yl)-2-[1-(prop-2-enoyl)pyrrolidin-3-yl]quinazolin-4(3H)-one]
- IC50 (KRAS^G12C): 5 µM
- IC50 (KRAS^WT): > 20 µM
- Covalent Binding Assay (% binding) [1]: 81%

SMILES: C=CC(=O)N1CCC(c2nc3cc(Cl)c(-c4cccc5ncccc45)cc3c(=O)[nH]2)C1 (stereo not drawn) [Example 26, 7-chloro-2-[1-(prop-2-enoyl)pyrrolidin-3-yl]-6-(quinolin-5-yl)quinazolin-4(3H)-one]
- IC50 (KRAS^G12C): > 19 µM
- IC50 (KRAS^WT): > 20 µM
- Covalent Binding Assay (% binding) [1]: 41%

SMILES: C=CC(=O)N1CCC(c2cc3ncc(-c4c(F)cccc4OC)cc3c(=O)[nH]2)C1 (stereo not drawn) [Example 28, 3-(2-Fluoro-6-methoxyphenyl)-7-[1-(prop-2-enoyl)pyrrolidin-3-yl]-1,6-naphthyridin-5(6H)-one]
- IC50 (KRAS^G12C): 10 µM
- IC50 (KRAS^WT): > 20 µM
- Covalent Binding Assay (% binding) [1]: 52%

SMILES: C=CC(=O)N1CCC(c2cc3ncc(-c4ccccc4F)cc3c(=O)[nH]2)C1 (stereo not drawn) [Example 30, 3-(2-Fluorophenyl)-7-[1-(prop-2-enoyl)pyrrolidin-3-yl]-1,6-naphthyridin-5(6H)-one]
- IC50 (KRAS^G12C): 5.3 µM
- IC50 (KRAS^WT): > 20 µM
- Covalent Binding Assay (% binding) [1]: 69%

SMILES: C=CC(=O)N1CCC(c2cc3ncc(-c4ccc(F)cc4F)cc3c(=O)[nH]2)C1 (stereo not drawn) [Example 31, 3-(2,4-Difluorophenyl)-7-[1-(prop-2-enoyl)pyrrolidin-3-yl]-1,6-naphthyridin-5(6H)-one]
- IC50 (KRAS^G12C): > 14 µM
- IC50 (KRAS^WT): > 20 µM
- Covalent Binding Assay (% binding) [1]: 62%

SMILES: C=CC(=O)N1CCC(c2cc3ncc(-c4cccc5ncccc45)cc3c(=O)[nH]2)C1 (stereo not drawn) [Example 32, 7-[1-(Prop-2-enoyl)pyrrolidin-3-yl]-3-(quinolin-5-yl)-1,6-naphthyridin-5(6H)-one]
- IC50 (KRAS^G12C): > 20 µM
- IC50 (KRAS^WT): > 20 µM
- Covalent Binding Assay (% binding) [1]: 13%

SMILES: C=CC(=O)N1CCC(c2cc3ncc(-c4ccccc4CC)cc3c(=O)[nH]2)C1 (stereo not drawn) [Example 33, 3-(2-Ethylphenyl)-7-[1-(prop-2-enoyl)pyrrolidin-3-yl]-1,6-naphthyridin-5(6H)-one]
- IC50 (KRAS^G12C): 6.8 µM
- IC50 (KRAS^WT): > 20 µM
- Covalent Binding Assay (% binding) [1]: 60%

SMILES: C=CC(=O)N1CCC(c2cc3ncc(-c4sc(C)nc4C)cc3c(=O)[nH]2)C1 (stereo not drawn) [Example 34, 3-(2,4-Dimethyl-1,3-thiazol-5-yl)-7-[1-(prop-2-enoyl)pyrrolidin-3-yl]-1,6-naphthyridin-5(6H)-one]
- IC50 (KRAS^G12C): > 20 µM
- IC50 (KRAS^WT): > 20 µM
- Covalent Binding Assay (% binding) [1]: 0%

SMILES: C=CC(=O)N1CCC(c2cc3ncc(-c4cccnc4N4CCOCC4)cc3c(=O)[nH]2)C1 (stereo not drawn) [Example 35, 3-[2-(Morpholin-4-yl)pyridin-3-yl]-7-[1-(prop-2-enoyl)pyrrolidin-3-yl]-1,6-naphthyridin-5(6H)-one]
- IC50 (KRAS^G12C): > 20 µM
- IC50 (KRAS^WT): > 20 µM
- Covalent Binding Assay (% binding) [1]: 0%

SMILES: C=CC(=O)N1CCC(c2cc3ncc(-c4cc(O)ccc4F)cc3c(=O)[nH]2)C1 (stereo not drawn) [Example 36, 3-(2-Fluoro-5-hydroxyphenyl)-7-[1-(prop-2-enoyl)pyrrolidin-3-yl]-1,6-naphthyridin-5(6H)-one]
- IC50 (KRAS^G12C): 2.7 µM
- IC50 (KRAS^WT): > 20 µM
- Covalent Binding Assay (% binding) [1]: 85%

SMILES: C=CC(=O)N1CCC(c2cc3ncc(-c4ccc(F)c(O)c4)cc3c(=O)[nH]2)C1 (stereo not drawn) [Example 37, 3-(4-Fluoro-3-hydroxyphenyl)-7-[1-(prop-2-enoyl)pyrrolidin-3-yl]-1,6-naphthyridin-5(6H)-one]
- IC50 (KRAS^G12C): > 20 µM
- IC50 (KRAS^WT): > 20 µM
- Covalent Binding Assay (% binding) [1]: 21%

SMILES: C=CC(=O)N1CCC(c2nc3ccc(-c4c(O)cccc4F)nc3c(=O)[nH]2)C1 (stereo not drawn) [Example 38, 6-(2-Fluoro-6-hydroxyphenyl)-2[1-(prop-2-enoyl)pyrrolidin-3-yl]pyrido[3,2-d]pyrimidin-4(3H)-one]
- IC50 (KRAS^G12C): > 20 µM
- IC50 (KRAS^WT): > 20 µM
- Covalent Binding Assay (% binding) [1]: 0%

SMILES: C=CC(=O)N1CCC(c2nc3cnc(-c4c(O)cccc4F)cc3c(=O)[nH]2)C1 (stereo not drawn) [Example 39, 6-(2-Fluoro-6-hydroxyphenyl)-2-[1-(prop-2-enoyl)pyrrolidin-3-yl]pyrido[3,4-d]pyrimidin-4(3H)-one]
- IC50 (KRAS^G12C): 2.6 µM
- IC50 (KRAS^WT): > 20 µM
- Covalent Binding Assay (% binding) [1]: 73%

SMILES: C=CC(=O)N1CCC(c2nc3cnc(-c4c(C)ccc5[nH]ncc45)cc3c(=O)[nH]2)C1 (stereo not drawn) [Example 40, 6-(5-Methyl-1H-indazol-4-yl)-2-[1-(prop-2-enoyl)pyrrolidin-3-yl]pyrido[3,4-d]pyrimidin-4(3H)-one]
- IC50 (KRAS^G12C): 4.7 µM
- IC50 (KRAS^WT): > 20 µM
- Covalent Binding Assay (% binding) [1]: 66%

SMILES: C=CC(=O)N1CCC(c2cc3cnc(-c4c(F)cccc4OC)cc3c(=O)[nH]2)C1 (stereo not drawn) [Example 41, 7-(2-Fluoro-6-methoxyphenyl)-3-[1-(prop-2-enoyl)pyrrolidin-3-yl]-2,6-naphthyridin-1(2H)-one]
- IC50 (KRAS^G12C): > 20 µM
- IC50 (KRAS^WT): > 20 µM
- Covalent Binding Assay (% binding) [1]: 32%
